Experimental data as given in ChEMBL document CHEMBL1152303, “Synthesis and biological evaluation of a series of liver-selective phosphonic acid thyroid hormone receptor agonists and their prodrugs” (J Med Chem, 2008).
Blank lines part the entries; values can stand above or below the compound they belong to.

Key:
[1] = system: Rattus norvegicus; experiment: Reduction in total plasma cholesterol level in cholesterol-fed Sprague-Dawley rat at 0.2 mg/kg, ip after 24 hrs; type: functional; parameters: scale not given: the % may be the effect or the level left; conditions: route intraperitoneal
[2] = system: Rattus norvegicus; experiment: Reduction in total plasma cholesterol level in cholesterol-fed Sprague-Dawley rat at 0.5 mg/kg, po after 24 hrs; type: functional; parameters: scale not given: the % may be the effect or the level left
[3] = Metabolic stability in human S9 liver fraction assessed as prodrug remaining at 100 uM after 1 hr; type: ADME, subcellular; conditions: s9, 1 h
[4] = system: Rattus norvegicus; experiment: Reduction in total plasma cholesterol level in cholesterol-fed orally dosed Sprague-Dawley rat after 24 hrs relative to control; type: functional; parameters: scale not given: the % may be the effect or the level left
[5] = Metabolic stability in human S9 liver fraction assessed as monoacid levels at 100 uM after 1 hr; type: ADME, subcellular; conditions: s9, 1 h
[6] = Metabolic stability in human liver S9 fraction assessed as activation rate at 100 uM after 1 hr; type: ADME, subcellular; conditions: s9, 1 h
[7] = system: Rattus norvegicus; experiment: Reduction in total plasma cholesterol level in cholesterol-fed orally dosed Sprague-Dawley rat after 24 hrs; type: functional; conditions: po
[8] = biological target: T1, Thyroid hormone receptor beta (Homo sapiens, UniProt P10828)
T1 sequence (P10828 whole entry): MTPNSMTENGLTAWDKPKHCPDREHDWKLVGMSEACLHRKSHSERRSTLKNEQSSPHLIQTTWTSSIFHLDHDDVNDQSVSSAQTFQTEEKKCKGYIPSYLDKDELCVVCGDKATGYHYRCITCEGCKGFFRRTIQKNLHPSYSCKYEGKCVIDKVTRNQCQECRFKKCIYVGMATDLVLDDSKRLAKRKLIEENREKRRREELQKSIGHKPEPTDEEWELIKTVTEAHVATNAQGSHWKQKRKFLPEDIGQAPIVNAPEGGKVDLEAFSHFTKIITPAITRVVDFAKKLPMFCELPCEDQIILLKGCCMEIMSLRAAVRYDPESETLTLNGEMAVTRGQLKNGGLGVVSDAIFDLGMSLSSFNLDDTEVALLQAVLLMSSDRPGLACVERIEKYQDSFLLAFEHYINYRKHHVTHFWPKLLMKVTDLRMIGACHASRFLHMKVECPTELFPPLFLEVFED
Description: Displacement of [125I]3,5,3'-triiodo-L-thyronine His-tagged human recombinant TRbeta1 by scintillation proximity assay

[9] = biological target: T2, Thyroid hormone receptor alpha (Homo sapiens, UniProt P10827)
T2 sequence (P10827 whole entry): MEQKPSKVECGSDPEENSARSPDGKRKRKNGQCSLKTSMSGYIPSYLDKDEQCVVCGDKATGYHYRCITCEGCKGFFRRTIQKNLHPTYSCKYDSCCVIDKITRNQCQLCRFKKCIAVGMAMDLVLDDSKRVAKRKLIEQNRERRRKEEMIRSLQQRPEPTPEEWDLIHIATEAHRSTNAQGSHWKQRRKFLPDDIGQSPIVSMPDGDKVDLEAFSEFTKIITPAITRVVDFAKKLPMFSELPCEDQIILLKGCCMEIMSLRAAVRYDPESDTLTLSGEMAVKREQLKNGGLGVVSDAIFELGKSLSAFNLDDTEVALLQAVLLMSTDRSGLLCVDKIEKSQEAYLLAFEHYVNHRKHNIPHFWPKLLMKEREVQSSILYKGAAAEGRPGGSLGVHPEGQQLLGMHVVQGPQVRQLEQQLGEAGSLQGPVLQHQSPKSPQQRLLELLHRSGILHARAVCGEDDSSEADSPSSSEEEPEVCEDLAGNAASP
Description: Displacement of [125I]3,5,3'-triiodo-L-thyronine from His-tagged human recombinant TRalpha1 by scintillation proximity assay

[10] = system: Rattus norvegicus; experiment: Agonist activity at thyroid hormone receptor in Sprague-Dawley rat assessed as heart mGPDH activity at 1 mg/kg administered through osmotic pump infusion per ug protein; type: functional
[11] = system: Rattus norvegicus; experiment: Agonist activity at thyroid hormone receptor in Sprague-Dawley rat assessed as liver mGPDH activity at 1 mg/kg administered through osmotic pump infusion per ug protein; type: functional
[12] = system: Rattus norvegicus; experiment: AUClast in Sprague-Dawley rat assessed as 3,5-Dimethyl-4-(4'-hydroxy-3'-isopropylbenzyl)phenoxy]methylphosphonic acid level at 3 mg/kg, iv; type: ADME, organism-based, Plasma; parameters: time 0 - last, dose 3 mg/kg, route intravenous; conditions: in vivo
[13] = system: Rattus norvegicus; experiment: AUClast in Sprague-Dawley rat assessed as 3,5-Dimethyl-4-(4'-hydroxy-3'-isopropylbenzyl)phenoxy]methylphosphonic acid level at 3 mg/kg, po; type: ADME, organism-based, Plasma; parameters: time 0 - last, dose 3 mg/kg, route oral; conditions: in vivo
[14] = system: Rattus norvegicus; experiment: Mean residence time in Sprague-Dawley rat assessed as 3,5-Dimethyl-4-(4'-hydroxy-3'-isopropylbenzyl)phenoxy]methylphosphonic acid level at 3 mg/kg, po; type: ADME, organism-based; parameters: dose 3 mg/kg, route oral; conditions: in vivo
[15] = Mean residence time in Sprague-Dawley rat at 3 mg/kg, po; type: ADME, organism-based; parameters: dose 3 mg/kg, route oral; conditions: in vivo
[16] = system: Rattus norvegicus; experiment: Tmax in Sprague-Dawley rat assessed as 3,5-Dimethyl-4-(4'-hydroxy-3'-isopropylbenzyl)phenoxy]methylphosphonic acid level at 3 mg/kg, iv; type: ADME, organism-based; parameters: dose 3 mg/kg, route intravenous; conditions: in vivo
[17] = system: Rattus norvegicus; experiment: Tmax in Sprague-Dawley rat assessed as 3,5-Dimethyl-4-(4'-hydroxy-3'-isopropylbenzyl)phenoxy]methylphosphonic acid level at 3 mg/kg, po; type: ADME, organism-based; parameters: dose 3 mg/kg, route oral; conditions: in vivo
[18] = system: Rattus norvegicus; experiment: Mean absorption time in Sprague-Dawley rat at 3 mg/kg, po; type: ADME, organism-based; parameters: dose 3 mg/kg, route oral; conditions: in vivo
[19] = system: Rattus norvegicus; experiment: Tmax in Sprague-Dawley rat at 3 mg/kg, po; type: ADME, organism-based; parameters: dose 3 mg/kg, route oral; conditions: in vivo
[20] = system: Rattus norvegicus; experiment: Half life in Sprague-Dawley rat at 3 mg/kg, iv; type: ADME, organism-based; parameters: dose 3 mg/kg, route intravenous; conditions: in vivo
[21] = system: Rattus norvegicus; experiment: Mean residence time in Sprague-Dawley rat assessed as 3,5-Dimethyl-4-(4'-hydroxy-3'-isopropylbenzyl)phenoxy]methylphosphonic acid level at 3 mg/kg, iv; type: ADME, organism-based; parameters: dose 3 mg/kg, route intravenous; conditions: in vivo
[22] = AUClast in Sprague-Dawley rat at 3 mg/kg, iv; type: ADME, organism-based; parameters: time 0 - last, dose 3 mg/kg, route intravenous; conditions: plasma
[23] = Oral bioavailability in Sprague-Dawley rat at 3 mg/kg; type: ADME, organism-based; conditions: in vivo
[24] = system: Rattus norvegicus; experiment: Half life in Sprague-Dawley rat assessed as 3,5-Dimethyl-4-(4'-hydroxy-3'-isopropylbenzyl)phenoxy]methylphosphonic acid level at 3 mg/kg, iv; type: ADME, organism-based; parameters: dose 3 mg/kg, route intravenous; conditions: in vivo
[25] = system: Rattus norvegicus; experiment: Mean absorption time in Sprague-Dawley rat assessed as 3,5-Dimethyl-4-(4'-hydroxy-3'-isopropylbenzyl)phenoxy]methylphosphonic acid level at 3 mg/kg, po; type: ADME, organism-based; parameters: dose 3 mg/kg, route oral; conditions: in vivo
[26] = Tmax in Sprague-Dawley rat at 3 mg/kg, iv; type: ADME, organism-based; parameters: dose 3 mg/kg, route intravenous; conditions: in vivo
[27] = system: Rattus norvegicus; experiment: Half life in Sprague-Dawley rat at 3 mg/kg, po; type: ADME, organism-based; parameters: dose 3 mg/kg, route oral; conditions: in vivo
[28] = system: Rattus norvegicus; experiment: Cmax in Sprague-Dawley rat at 3 mg/kg, po; type: ADME, organism-based; parameters: dose 3 mg/kg, route oral; conditions: in vivo
[29] = system: Rattus norvegicus; experiment: Half life in Sprague-Dawley rat assessed as 3,5-Dimethyl-4-(4'-hydroxy-3'-isopropylbenzyl)phenoxy]methylphosphonic acid level at 3 mg/kg, po; type: ADME, organism-based; parameters: dose 3 mg/kg, route oral; conditions: in vivo
[30] = system: Rattus norvegicus; experiment: Cmax in Sprague-Dawley rat assessed as 3,5-Dimethyl-4-(4'-hydroxy-3'-isopropylbenzyl)phenoxy]methylphosphonic acid level at 3 mg/kg, iv; type: ADME, organism-based; parameters: dose 3 mg/kg, route intravenous; conditions: in vivo
[31] = Mean residence time in Sprague-Dawley rat at 3 mg/kg, iv; type: ADME, organism-based; parameters: dose 3 mg/kg, route intravenous; conditions: in vivo
[32] = system: Rattus norvegicus; experiment: Oral bioavailability in Sprague-Dawley rat assessed as 3,5-Dimethyl-4-(4'-hydroxy-3'-isopropylbenzyl)phenoxy]methylphosphonic acid level at 3 mg/kg; type: ADME, organism-based; conditions: in vivo
[33] = system: Rattus norvegicus; experiment: Cmax in Sprague-Dawley rat at 3 mg/kg, iv; type: ADME, organism-based; parameters: dose 3 mg/kg, route intravenous; conditions: in vivo
[34] = system: Rattus norvegicus; experiment: Cmax in Sprague-Dawley rat assessed as 3,5-Dimethyl-4-(4'-hydroxy-3'-isopropylbenzyl)phenoxy]methylphosphonic acid level at 3 mg/kg, po; type: ADME, organism-based; parameters: dose 3 mg/kg, route oral; conditions: in vivo
[35] = AUClast in Sprague-Dawley rat at 3 mg/kg, po; type: ADME, organism-based; parameters: time 0 - last, dose 3 mg/kg, route oral; conditions: plasma

SMILES: CC(C)c1cc(Oc2c(Br)cc(NCP(=O)(O)O)cc2Br)ccc1O
Activity [1]: 47.7%

SMILES: CC(C)c1cc(Oc2c(I)cc(CP(=O)(O)O)cc2I)ccc1O
Activity [1]: 39.4%

Stability [3]: 11% | Stability [5]: 79% | Stability [6]: 134 pmol/min/mg
SMILES: Cc1cc(OCP(=O)(OCOC(=O)C(C)(C)C)OCOC(=O)C(C)(C)C)cc(C)c1Cc1ccc(O)c(C(C)C)c1
Activity [2]: 33% | Activity [4]: 46% | ED50 [7]: 0.7 mg/kg

SMILES: Cc1cc(OC[P@@]2(=O)OCC[C@@H](c3ccc(Cl)cc3)O2)cc(C)c1Cc1ccc(O)c(C(C)C)c1
Activity [2]: 28%

Ki [8]: 30.5 nM
SMILES: CC(C)c1cc(Oc2c(Cl)cc(NCP(=O)(O)O)cc2Cl)ccc1O

Ki [9]: 235 nM | Ki [8]: 15.5 nM
SMILES: CC(C)c1cc(Oc2c(Br)cc(CP(=O)(O)O)cc2Br)ccc1O

Ki [9]: 3300 nM
SMILES: COc1cc(OCP(=O)(O)O)cc(OC)c1Cc1ccc(O)c(C(C)C)c1

SMILES: Cc1cc(OC[P@@]2(=O)OCC[C@@H](c3cccnc3)O2)cc(C)c1Cc1ccc(O)c(C(C)C)c1 (relative stereo)
Activity [2]: 39%

SMILES: Cc1cc(OC[P@@]2(=O)OCC[C@@H](c3cccc(F)c3)O2)cc(C)c1Cc1ccc(O)c(C(C)C)c1 (relative stereo)
Activity [2]: 46%

SMILES: Cc1cc(OC[P@@]2(=O)OCC[C@@H](c3cc(Cl)cc(Cl)c3)O2)cc(C)c1Cc1ccc(O)c(C(C)C)c1 (relative stereo)
Activity [2]: 29%

SMILES: Cc1cc(OC[P@@]2(=O)OCC[C@@H](c3ccncc3)O2)cc(C)c1Cc1ccc(O)c(C(C)C)c1 (relative stereo)
Activity [2]: 29%

SMILES: Cc1cc(OC[P@@]2(=O)OCC[C@@H](c3cccc(Br)c3)O2)cc(C)c1Cc1ccc(O)c(C(C)C)c1 (relative stereo)
Activity [2]: 0%

SMILES: N[C@@H](Cc1cc(I)c(Oc2ccc(O)c(I)c2)c(I)c1)C(=O)O [LIOTHYRONINE]
Activity [10]: 4.18 U/min | Activity [11]: 7.52 U/min

Ki [8]: 2.95 nM
SMILES: Cc1cc(OCP(=O)(O)O)cc(C)c1Cc1ccc(O)c(C(C)C)c1 [MB07344]
Activity [10]: 1.66 U/min | Activity [11]: 7.37 U/min | Activity [1]: 37.2%

AUClast [12]: 340 ng·h/mL | AUClast [13]: 135 ng·h/mL | MRT [14]: 7.91 h | MRT [15]: 2.49 h | Tmax [16]: 0.6 h | Tmax [17]: 3.6 h | MAT [18]: 1.29 h | Tmax [19]: 2.1 h | t1/2 [20]: 1.23 h | MRT [21]: 4.49 h | AUC(0-t) [22]: 260 ng·h/mL | bioavailability [23]: 9.9% | t1/2 [24]: 8.82 h | MAT [25]: 3.4 h | Tmax [26]: 0 h | t1/2 [27]: 0.95 h | Cmax [28]: 12 ng/mL | t1/2 [29]: 9.25 h | Cmax [30]: 92 ng/mL | MRT [31]: 1.2 h | F [32]: 39.2% | Cmax [33]: 600 ng/mL | Cmax [34]: 18 ng/mL | AUC(0-t) [35]: 26 ng·h/mL
SMILES: Cc1cc(OCP2(=O)OCC[C@@H](c3cccc(Cl)c3)O2)cc(C)c1Cc1ccc(O)c(C(C)C)c1 (stereo not given in full) [MB07811]
Activity [2]: 36% | Activity [4]: 55% | ED50 [7]: 0.48 mg/kg

SMILES: Cc1cc(OCC(=O)O)cc(C)c1Cc1ccc(O)c(C(C)C)c1 [SOBETIROME]
Activity [10]: 4.08 U/min | Activity [11]: 7.88 U/min

SMILES: O=C(O)Cc1cc(I)c(Oc2ccc(O)c(I)c2)c(I)c1 [TIRATRICOL]
Activity [10]: 3.68 U/min | Activity [11]: 7.1 U/min
